Assay results taken from ChEMBL document CHEMBL1159177, “Novel A-ring cleaved analogs of oleanolic and ursolic acids which affect growth regulation in NRP.152 prostate cells” (Bioorg Med Chem Lett, 1997).

Assay: In vitro inhibitory concentration against cell proliferation of nonmalignant, nontumerigenic prostate cells (NRP.152)
Type: functional, cell-based
Settings: Rattus norvegicus

CC1(C)CC[C@]2(C(=O)O)CC[C@]3(C)C(=CC[C@@H]4[C@@]5(C)CCC(=O)C(C)(C)[C@@H]5CC[C@]43C)[C@@H]2C1 [OLEANONIC ACID]
IC50: > 5 µM

C[C@@H]1CC[C@]2(C(=O)O)CC[C@]3(C)C(=CC[C@@H]4[C@@]5(C)CC[C@H](O)C(C)(C)[C@@H]5CC[C@]43C)C2[C@H]1C (some centres not stated)
IC50: > 5 µM

C=C(C)[C@@H]1CC[C@]2(C)[C@H](CC=C3C4[C@@H](C)[C@H](C)CC[C@]4(C(=O)O)CC[C@]32C)[C@@]1(C)CCC=O (some centres not stated)
IC50: 2.4 µM

C=C(C)[C@@H]1CC[C@]2(C)[C@H](CC=C3C4CC(C)(C)CC[C@]4(C(=O)O)CC[C@]32C)[C@@]1(C)CCC#N (some centres not stated)
IC50: 3.8 µM

C=C(C)[C@@H]1CC[C@]2(C)[C@H](CC=C3C4[C@@H](C)[C@H](C)CC[C@]4(C(=O)O)CC[C@]32C)[C@@]1(C)CCC#N (some centres not stated)
IC50: > 5 µM

C=C(C)[C@@H]1CC[C@]2(C)[C@H](CC=C3C4CC(C)(C)CC[C@]4(C(=O)O)CC[C@]32C)[C@@]1(C)CCC=O (some centres not stated)
IC50: 1.5 µM

CC(C)[C@@H]1CC[C@]2(C)[C@H](CC=C3C4[C@@H](C)[C@H](C)CC[C@]4(C(=O)O)CC[C@]32C)[C@@]1(C)CCCN (some centres not stated)
IC50: 0.3 µM

C=C(C)[C@@H]1CC[C@]2(C)[C@H](CC=C3C4CC(C)(C)CC[C@]4(C(=O)O)CC[C@]32C)[C@@]1(C)CCC(=O)O (some centres not stated)
IC50: > 5 µM

CC(C)[C@@H]1CC[C@]2(C)[C@H](CC=C3C4CC(C)(C)CC[C@]4(C(=O)O)CC[C@]32C)[C@@]1(C)CCCN (some centres not stated)
IC50: 0.7 µM

C[C@@H]1CC[C@]2(C(=O)O)CC[C@]3(C)C(=CC[C@@H]4[C@@]5(C)CCC(=O)C(C)(C)[C@@H]5CC[C@]43C)C2[C@H]1C (some centres not stated)
IC50: > 5 µM

CC1(C)CC[C@]2(C(=O)O)CC[C@]3(C)C(=CC[C@@H]4[C@@]5(C)CC[C@H](O)C(C)(C)[C@@H]5CC[C@]43C)[C@@H]2C1 [OLEANOLIC_ACID]
IC50: > 5 µM

C=C(C)[C@@H]1CC[C@]2(C)[C@H](CC=C3C4[C@@H](C)[C@H](C)CC[C@]4(C(=O)O)CC[C@]32C)[C@@]1(C)CCC(=O)O (some centres not stated)
IC50: > 5 µM
